Several values for one entry are separate records, joined by “and”; a condition that tells them apart may be missing. Identical values can stand only once. Blank lines part the entries; values can stand above or below the compound they belong to.
System: 519858-162-T-J1-PDC spheroid growth inhibition
Experiment: Anticancer human tumor 519858-162-T-J1-PDC patient-derived colon adenocarcinoma cell line growth inhibition [TAK]
Settings: spheroids with HUVEC and MSC; for viability, T/C: stronger effect = lower value
Description: Combinatorial screen of targeted agents with TAK-243 and ipatasertib in multi-cell type tumor spheroids
A high-throughput screen of multi-cell type tumor spheroids was designed to identify active combinations of targeted small molecules and TAK-243 or ipatasertib. Complex spheroids include a stromal component modeled by human endothelial cells (HUVEC) and fibroblasts modeled by human mesenchymal stem cells (MSCs). The concentration ranges selected for each drug and investigational agent were based upon clinically achievable concentrations if the clinical Cmax of the agent was known.
Compounds. The drugs and investigational agents: TAK-243 (785004), ipatasertib (767898), everolimus (733504), selumetinib (741078), bortezomib (756655), trametinib (758246), ixazomib (758254), vemurafenib (761431), dabrafenib (764134), sapanisertib (764658), alpelisib (765974), and copanlisib (816437), were obtained from the National Cancer Institute (NCI) Developmental Therapeutics Program Chemical Repository. The FDA-approved anticancer drug set is available from the NCI Developmental Therapeutics Program. […] The stock solutions were prepared in dimethyl sulfoxide (DMSO, Sigma-Aldrich, St. Louis, MO, cat. D2650) at 800-fold the tested concentration and stored at -70 degrees C prior to their use. All drugs and investigational agents were tested over a range starting from a high concentration at or near the clinical Cmax and decreasing in half-log increments. If the clinical Cmax for an agent had not been determined, the highest concentration tested was 10 microM.
NCI60 Cell Culture. NCI60 cell lines were obtained from the NCI Developmental Therapeutics Program Tumor Repository. For each lot of cells, the Repository performed Applied Biosystems AmpFLSTR Identifiler testing with PCR amplification to confirm consistency with the published Identifier STR profile for each cell line. Cells were kept in continuous culture for no more than 20 passages. The optimal seeding densities for each of the cell lines at each time point assessed were determined prior to performing the concentration response studies. Briefly, the NCI60 human tumor lines were grown as monolayers in RPMI 1640 medium supplemented with 10% FBS and 2 mmol/L L-glutamine.
An additional 2 lines were from the NCI60 cell line panel including melanomas, MALME-3M and SK-MEL-2. Pooled donor human umbilical vein endothelial cells (HUVEC, Lonza, cat. CC-2519) and human mesenchymal stem cells (hMSC, Lonza, cat. PT-2501) were purchased from Lonza (Walkersville, MD).
PDMR cell lines were grown in complete medium (DC medium): Dulbecco's modified Eagle's medium (DMEM)/F12 supplemented with 5% fetal bovine serum (FBS), 2 mM L-glutamine, 100 U/mL penicillin and 100 µg/ml streptomycin, 0.4 µg/ml hydrocortisone, 10 ng/ml epidermal growth factor (EGF) recombinant human protein, 24 µg/mL adenine, and 0.1 mg/mL primocin. During culture from frozen stock vials, PDMR cells were cultured in the same medium containing 10 µM Y-27632 (see Table 3). The PDCs were cultured in complete DMEM/F12 media without 10 microM Y-27632 dihydrochloride for at least two passages prior to the screen. The pooled donor HUVEC and hMSC were cultured in endothelial cell growth medium 2 (PromoCell, Heidelberg, Germany, cat. C-22011) and mesenchymal stem cell growth medium 2 (PromoCell, cat. C-28009), respectively. For all experiments, HUVEC and hMSC were used at passages </=5.
For the pre-screen, cell seeding densities were determined from a titration spanning the range from 5,000 to 313 cells per well. The mct-spheroids including 60% malignant cells, 25% HUVEC and 15% MSC dispensed as a mixture into U-bottom Ultra-Low Attachment 384-well plates (Corning, NY)
High-throughput Drug Combination Screening.
Prior to their inoculation into 384-well plates, malignant cells, HUVEC, and hMSC were removed from T flasks using TrypLE express (Thermo Fisher Scientific, cat. 12605036) and harvested by centrifugation for 5 min at 233 x g. […]

[1] = curve of first compound, second compound 0.3 µM
[2] = curve of first compound, second compound 0.949 µM
[3] = curve of first compound, second compound 3 µM
[4] = curve of first compound, second compound 9.49 µM
[5] = curve of first compound, second compound 30 µM
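Further: spheroids exposed to drugs for 7 days.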

IC50 (curve of compound): > 0.1 µM
SMILES: COC1CC2CCC(C)C(O)(O2)C(=O)C(=O)N2CCCCC2C(=O)OC(C(C)CC2CCC(OCCO)C(OC)C2)CC(=O)C(C)C=C(C)C(O)C(OC)C(=O)C(C)CC(C)C=CC=CC=C1C (stereo unspecified)
viability, T/C (compound 0.000316 µM): 98.9% and 86.7%
viability, T/C (compound 0.00316 µM): 88.3% and 111%
viability, T/C (compound 0.01 µM): 76.2% and 91.2%
viability, T/C (compound 0.0316 µM): 89.6% and 75.7%
viability, T/C (compound 0.1 µM): 71.5% and 82.5%

SMILES: CCCS(=O)(=O)Nc1ccc(F)c(C(=O)c2c[nH]c3ncc(-c4ccc(Cl)cc4)cc23)c1F + CC(C)NCC(C(=O)N1CCN(c2ncnc3c2C(C)CC3O)CC1)c1ccc(Cl)cc1
IC50 [1]: > 100 µM
IC50 [2]: > 100 µM
IC50 [3]: > 100 µM
IC50 [4]: > 100 µM
IC50 [5]: 30.4 µM
viability, T/C (second compound 0.3 µM, first compound 0.316 µM): 85.8%
viability, T/C (second compound 0.3 µM, first compound 1 µM): 109%
viability, T/C (second compound 0.3 µM, first compound 3.16 µM): 95.8%
viability, T/C (second compound 0.3 µM, first compound 10 µM): 109%
viability, T/C (second compound 0.3 µM, first compound 31.6 µM): 90.6%
viability, T/C (second compound 0.3 µM, first compound 100 µM): 103%
viability, T/C (second compound 0.949 µM, first compound 0.316 µM): 74.8%
viability, T/C (second compound 0.949 µM, first compound 1 µM): 99.7%
viability, T/C (second compound 0.949 µM, first compound 3.16 µM): 118%
viability, T/C (second compound 0.949 µM, first compound 10 µM): 83.1%
viability, T/C (second compound 0.949 µM, first compound 31.6 µM): 51%
viability, T/C (second compound 0.949 µM, first compound 100 µM): 99.9%
viability, T/C (second compound 3 µM, first compound 0.316 µM): 106%
viability, T/C (second compound 3 µM, first compound 1 µM): 102%
viability, T/C (second compound 3 µM, first compound 3.16 µM): 114%
viability, T/C (second compound 3 µM, first compound 10 µM): 82.8%
viability, T/C (second compound 3 µM, first compound 31.6 µM): 99.8%
viability, T/C (second compound 3 µM, first compound 100 µM): 113%
viability, T/C (second compound 9.49 µM, first compound 0.316 µM): 99.8%
viability, T/C (second compound 9.49 µM, first compound 1 µM): 103%
viability, T/C (second compound 9.49 µM, first compound 3.16 µM): 84.8%
viability, T/C (second compound 9.49 µM, first compound 10 µM): 88.1%
viability, T/C (second compound 9.49 µM, first compound 31.6 µM): 77.9%
viability, T/C (second compound 9.49 µM, first compound 100 µM): 96%
viability, T/C (second compound 30 µM, first compound 0.316 µM): 76.3%
viability, T/C (second compound 30 µM, first compound 1 µM): 101%
viability, T/C (second compound 30 µM, first compound 3.16 µM): 94.9%
viability, T/C (second compound 30 µM, first compound 10 µM): 61%
viability, T/C (second compound 30 µM, first compound 31.6 µM): 23.6%
viability, T/C (second compound 30 µM, first compound 100 µM): 75.5%

SMILES: COC1CC2CCC(C)C(O)(O2)C(=O)C(=O)N2CCCCC2C(=O)OC(C(C)CC2CCC(OCCO)C(OC)C2)CC(=O)C(C)C=C(C)C(O)C(OC)C(=O)C(C)CC(C)C=CC=CC=C1C (stereo unspecified) + CC(C)NCC(C(=O)N1CCN(c2ncnc3c2C(C)CC3O)CC1)c1ccc(Cl)cc1
IC50 [1]: > 0.1 µM
IC50 [2]: > 0.1 µM
IC50 [3]: > 0.1 µM
IC50 [4]: > 0.1 µM
IC50 [5]: > 0.1 µM
viability, T/C (second compound 0.3 µM, first compound 0.000316 µM): 102%
viability, T/C (second compound 0.3 µM, first compound 0.001 µM): 91.5%
viability, T/C (second compound 0.3 µM, first compound 0.00316 µM): 89.6%
viability, T/C (second compound 0.3 µM, first compound 0.01 µM): 90%
viability, T/C (second compound 0.3 µM, first compound 0.0316 µM): 104%
viability, T/C (second compound 0.3 µM, first compound 0.1 µM): 84.6%
viability, T/C (second compound 0.949 µM, first compound 0.000316 µM): 83.6%
viability, T/C (second compound 0.949 µM, first compound 0.001 µM): 87.1%
viability, T/C (second compound 0.949 µM, first compound 0.00316 µM): 65.8%
viability, T/C (second compound 0.949 µM, first compound 0.01 µM): 85.7%
viability, T/C (second compound 0.949 µM, first compound 0.0316 µM): 85.2%
viability, T/C (second compound 0.949 µM, first compound 0.1 µM): 71.6%
viability, T/C (second compound 3 µM, first compound 0.000316 µM): 99.2%
viability, T/C (second compound 3 µM, first compound 0.001 µM): 68.7%
viability, T/C (second compound 3 µM, first compound 0.00316 µM): 85.3%
viability, T/C (second compound 3 µM, first compound 0.01 µM): 93.4%
viability, T/C (second compound 3 µM, first compound 0.0316 µM): 85.6%
viability, T/C (second compound 3 µM, first compound 0.1 µM): 94.1%
viability, T/C (second compound 9.49 µM, first compound 0.000316 µM): 98.9%
viability, T/C (second compound 9.49 µM, first compound 0.001 µM): 84.6%
viability, T/C (second compound 9.49 µM, first compound 0.00316 µM): 75.6%
viability, T/C (second compound 9.49 µM, first compound 0.01 µM): 98%
viability, T/C (second compound 9.49 µM, first compound 0.0316 µM): 85.8%
viability, T/C (second compound 9.49 µM, first compound 0.1 µM): 73.8%
viability, T/C (second compound 30 µM, first compound 0.000316 µM): 90.2%
viability, T/C (second compound 30 µM, first compound 0.001 µM): 96.8%
viability, T/C (second compound 30 µM, first compound 0.00316 µM): 82.3%
viability, T/C (second compound 30 µM, first compound 0.01 µM): 96.8%
viability, T/C (second compound 30 µM, first compound 0.0316 µM): 97.3%
viability, T/C (second compound 30 µM, first compound 0.1 µM): 72.6%
